Measured values published in patent US6225478A, “Iridoid derivatives and neovascularization inhibitors containing the same as active ingredient” (Tsumura & Co., priority 1999, dated 2001).
Values after ≈ are worked out from the molar mass of the structure shown. Like-named read-outs stand apart in the source and are kept apart here.

Legend:
[1] = test system: human umbilical-vein endothelial cells (HUVEC); assay: Cell Proliferation Assay (CPA) Test, HUVEC, MTT; format: cell-based; settings: Homo sapiens, M199 (2+) medium, read-out: CPA (IC50 μg/ml)
Experimental: (§1) Furthermore, the sample liquids of compounds used in the CPA and CMA tests were prepared in the manner described below. Firstly, after weighing out each compound, a calculated amount of DMSO was added. After dissolving the compound in the DMSO, phosphate buffered physiological saline (PBS (-)) was added to bring the sample concentration to 1 mg/ml in PBS (-). The amount of DMSO used to dissolve the compounds was adjusted in advance to that the concentration of DMSO at that time was 5%. The resulting liquids were diluted 10-fold with 5% DMSO-PBS (-) solution to prepare sample solutions having a concentration of 0.1 mg/ml. In the TFA test, 320 μl of the prepared 1 mg/ml sample solutions were removed followed by addition of 680 μl of PBS (-) to prepare samples having a concentration of […]. Moreover, 100 μl of this solution was removed followed by addition of 900 μl of PBS (-) to dilute 10-fold and prepare samples having a concentration of 1 μg/ml. P [Cell Proliferation Assay (CPA) Test]
100 μl of the 7th subculture obtained from first generation human umbilical-vein endothelial cells (HUVEC) were disseminated in the wells (N=3) of a 96-well plate (Iwaki, Cat. #4860-010) at a cell concentration of 5×10^4 cells/ml. M-199 medium containing +20% FCS, 10 ng/ml of b-FGF and 10 ng/ml of EGF (abbreviated as "M199 (2+)") was used for the medium.
After culturing for 24 hours at 37° C. in the presence of 5% CO2 under the above conditions, 20 μl/well of MTT solution (solution containing 5 mg/ml of PBS (-)) were added to the control well followed by accurately culturing for 4 hours at 37° C. in the presence of 5% CO2. Following completion of culturing, 100 μl/well of a stop solution (0.001 N aqueous HCl solution containing 10% SDS) were added. On the other hand, 10 μl/well of sample solutions at concentrations of 1 mg/ml and 0.1 mg/ml were added to the other wells.
After culturing for 24 hours at 37° C. in the presence of 5% CO2, the medium was replaced and 100 μl/well of M199 (2+) were added. The samples were also replaced in each well at this time.
Moreover, after additionally culturing for 48 hours at 37° C. in the presence of 5% CO2, 20 μl/well of MTT solution were added to the wells containing sample and the control well followed by accurately culturing for 4 hours at 37° C. and adding 100 μl/well of stop solution.

[2] = test system: human umbilical-vein endothelial cells (HUVEC); assay: Cell Migration Assay (CMA) Test, HUVEC (% relative to control); format: cell-based; settings: Homo sapiens, HUVEC
Experimental: as §1
After disseminating the 7th subculture of HUVEC obtained from the first generation in the same manner as above at 4 ml/well (3.0×10^5 cells/well) in a collagen-coated 6-well plate (NUNC), the cells were cultured for 48 hours at 37° C. in the presence of 5% CO2. The cells reached nearly a completely confluent state as a result of this culturing.
A double-edged, disposable razor blade was divided into four sections, of which one of those sections was pinched between a pair of forceps. Using this piece of razor blade, the cell surface in the above confluent state was scraped off. Two areas of the cell surface were scraped off in each well.
After washing the surface of the wells from which the cells had been scraped off with medium, 4.0 ml of fresh M199 (2+) medium were added followed by addition of 40 μl or 4 μl of sample solution (1 mg/ml). The cells were cultured for 24 hours at 37° C. in the presence of 5% CO2. After discarding the culture liquid, the cells were fixed for 30 minutes with methanol. Next, after staining the cells for 4 hours with Giemsa stain, the plates were washed with tap water and air dried.
Measurement of cell migration was performed by microscopically counting the number of cells that had newly migrated within the range of a 1 mm×1 mm block. […] The total number of cells counted in blocks 1 through 5 were then totaled to determine the overall total number of cells. Four fields were counted for each well.
Evaluation was performed determining the cell migration (%) according to the following formula.
Cell migration rate=number of migrating cells to which sample was added×100/number of migrating of control (+)
Control (+) indicates the number of migrating cells in the control well containing M199 (2+).

[3] = test system: human umbilical-vein endothelial cells (HUVEC); assay: Tube Formation Assay (TFA) Test, HUVEC in collagen gel; format: cell-based; settings: Homo sapiens, HUVEC; for inhibition at 1 µg/mL / inhibition at 10 µg/mL: read-out: TFA (inhibition rate, %); for inhibition at 320 µM (stock): Tables 75-83, 0.32 mM sample solution, method as for Compounds 1 through 60, read-out: TFA Inhibition rate (%)
Summary of the method: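 HUVEC (7th subculture, 1×10^5 cells/ml) attached to collagen gel for 2 h at 37 °C, given sample and overlaid with collagen, then cultured 20 h at 37 °C, 5% CO2 in M-199 with 20% FCS, 30 ng/ml b-FGF and 0.1 μM PMA. Tube length measured by image analysis; % inhibition relative to positive and negative controls.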

HUFEC = assay: Cell Migration Assay (CMA) Test, inhibitory rate with control (-) correction; format: cell-based, human; settings: Homo sapiens, 24 h, 125 μl of 0.32 mM sample solution in 4.0 ml medium, 80% or more = remarkable
Summary of the method: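 Confluent HUFEC monolayers were scratch-wounded, then cultured 24 h at 37 °C, 5% CO2 in M199 (2+) medium with compound added as 125 μl of a 0.32 mM solution (3.2% DMSO) per 4 ml. Giemsa-stained cells migrating into 1 mm×1 mm blocks counted; inhibition % calculated relative to control (+) and control (−) wells.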

[4] = 1 μg/ml, 24 hours, 60% or less = remarkable inhibition, read-out: CMA (% relative to control)
[5] = 10 μg/ml, 24 hours, 60% or less = remarkable inhibition, read-out: CMA (% relative to control)
[6] = 20 h, 1 μg/ml, 20 hours, 40% or less judged remarkable
[7] = 20 h, 10 μg/ml, 20 hours, 40% or less judged remarkable

| SMILES | IC50 [1] [µg/mL] | activity at 1 µg/mL [2, 4] [%] | activity at 10 µg/mL [2, 5] [%] | inhibition at 320 µM (stock) [3] [%] | inhibition at 320 µM (stock) (HUFEC) [%] | other results |
| --- | --- | --- | --- | --- | --- | --- |
| CC[C@]12O[C@H]1C[C@@H]1C(C(=O)OC)=CO[C@@H](OC(=O)NC)[C@@H]12 [compound 43, (1S,4aS,6s,7R,7aR)-6,7-epoxy-7-ethyl-1,4a,5,6,7,7a-1-hexahydro-1-(methylcarbamoyloxy) cyclopenta [c] pyrane-4-carboxylic acid methylester] | > 100 | 99.9 | 89.3 |  |  | inhibition at 1 µg/mL [3, 6]: 12.4%; inhibition at 10 µg/mL [3, 7]: 9.1% |
| COC(=O)C1=CO[C@@H](OC(=O)NCCCl)[C@@H]2[C@@H]1C[C@@H]1O[C@]21C [compound 32, (1S,4aS,6S,7R,7aR)-1-[(2-chloroethyl)carbamoyloxy]-6,7-epoxy-1,4a,5,6,7,7a-hexahydro-7-methylcyclopenta [c] pyrane-4-carboxylic acid methylester] | > 100 | 93 | 97 |  |  | inhibition at 1 µg/mL ([3]; 1 μg/ml, 20 hours, 40% or less judged remarkable): 68.8%; inhibition at 10 µg/mL ([3]; 10 μg/ml, 20 hours, 40% or less judged remarkable): 30% |
| CNC(=O)OC[C@]12O[C@H]1C[C@@H]1C(C(=O)OC)=CO[C@@H](O)[C@@H]12 [Compound 60, (4aS,6S,7R,7aR)-6,7-epoxy-1-hydroxy-7-methylcarbamoyloxymethyl-1,4a,5,6,7a-pentahydro [c] pyrane-4-carboxylic acid methylester] | > 100 | 87.1 | 96.3 |  |  | inhibition at 1 µg/mL [3, 6]: 32.7%; inhibition at 10 µg/mL [3, 7]: 41.5% |
| CNC(=O)O[C@@H]1OC=C(C(=O)OC)[C@H]2C[C@H]3O[C@@]3(C)C12 (stereo in doubt) [Compound 57, (1S,4aS,6R,7S,7aR)-6,7-epoxy-7-methyl-1-(methylcarbamoyloxy)-1,4a,5,6,7,7a-hexahydrocyclopenta [c] pyrane-4-carboxylic acid methylester] | > 100 | 96 | 93 |  |  | inhibition at 1 µg/mL [3, 6]: 17.7%; inhibition at 10 µg/mL [3, 7]: 13.5% |
| CO[C@@H]1[C@H](OC(=O)/C=C/C=C/C=C/C=C/C(=O)O)CC[C@]2(CO2)[C@H]1[C@@]1(C)O[C@@H]1CC=C(C)C [Fumagilline, reference compound] | 33.3 (≈ 72.6 µM) | 95.5 | 74.2 |  |  |  |
| CNC(=O)O[C@@H]1OC=C(C(=O)O)[C@H]2C[C@@H]3O[C@]3(C)[C@H]12 [compound 2, sodium (1S,4aS,6S,7R,7aR)-6,7-epoxy-1,4a,5,6,7,7a-hexahydro-7-methyl-1-(methylcarbamoyloxy) cyclopenta [c]-pyrane-4-carboxylic acid] |  |  |  |  |  | activity at 1 µg/mL ([2]; 24 h, read-out: CMA (% relative to control), 1 μg/ml, 60% or less = remarkable inhibition): 88.4%; activity at 10 µg/mL ([2]; 24 h, read-out: CMA (% relative to control), 10 μg/ml, 60% or less = remarkable inhibition): 95.8%; inhibition at 1 µg/mL ([3]; 20 h): 69.1%; inhibition at 10 µg/mL ([3]; 20 h): 56.9% |
| CN(C)c1ccc(O)c2c1C[C@H]1C[C@H]3[C@H](N(C)C)C(O)=C(C(N)=O)C(=O)[C@@]3(O)C(O)=C1C2=O [Minocycline, reference compound] |  | 67.3 | 51.6 |  |  | inhibition at 1 µg/mL [3, 6]: 42.1%; inhibition at 10 µg/mL [3, 7]: 56.7% |
| CCCCCCNC(=O)O[C@@H]1OC=C(C(=O)OC)[C@H]2C[C@@H]3O[C@]3(C)[C@H]12 [compound 33, (1S,4aS,6S,7R,7aR)-6,7-epoxy-1-(n-hexylcarbamoyloxy)-1,4a,5,6,7,7a-hexahydro-7-methylcyclopenta [c] pyrane-4-carboxylic acid methylester] | > 100 | 109 | 102 |  |  |  |
| COC(=O)C1=CO[C@@H](OC(=O)NCCc2cccc(F)c2)[C@@H]2C(C)=CC[C@H]12 [I-99] |  |  |  | 8.6 | 9.9 |  |
| COC(=O)C1=CO[C@@H](OC(=O)NCc2ccc3c(c2)OCO3)[C@H]2[C@@H]1CC[C@@H]2C [I-234] |  |  |  | 7.3 | 7.3 |  |
| COC(=O)C1=CO[C@@H](OC(=O)N(CCO)CCO)[C@H]2[C@@H]1CC[C@@H]2C [I-240] |  |  |  | 7.4 | 8.5 |  |
| CNC(=O)O[C@@H]1OC=C(C(=O)OC)[C@H]2CC=C(CF)C12 (stereo in doubt) [I-314, (1S,4aS,7aR)-7-(fluoromethyl)-1-(methylcarbamoyloxy)-1,4a,5,7a-tetrahydrocyclopenta [c] pyrane-4-carboxylic acid methylester] |  |  |  | 9.4 | 47.2 |  |
| CCN1CCN(C(=O)O[C@@H]2OC=C(C(=O)OC)[C@H]3CC[C@H](C)[C@@H]23)CC1 [I-200] |  |  |  | 5.6 | 25 |  |
| COC(=O)C1=CO[C@@H](OC(=O)NCc2ccc(Cl)cc2)[C@@H]2C(C)=CC[C@H]12 [I-109] |  |  |  | 7.2 | 21.5 |  |
| COC(=O)C1=CO[C@@H](OC(=O)NCC2CC2)[C@H]2[C@@H]1CC[C@@H]2C [I-241] |  |  |  | 5.1 | 12.6 |  |
| COC(=O)C1=COC[C@H]2[C@@H]1C[C@@H]1O[C@@]12C [I-303] |  |  |  | 30.6 | 6.1 |  |
| COC(=O)C1=CO[C@@H](OC(=O)NCc2ccc(F)cc2)[C@@H]2C(C)=CC[C@H]12 [I-108] |  |  |  | 3 | 11.7 |  |
| COC(=O)C1=CO[C@@H](OC(=O)NCCN2CCCCC2)[C@H]2[C@@H]1CC[C@@H]2C [I-223] |  |  |  | 17.9 | 18.8 |  |
| COC(=O)C1=CO[C@@H](OC(=O)NC(CO)CO)[C@@H]2C(C)=CC[C@H]12 [I-147] |  |  |  | 10.3 | 41 |  |
| CCOC(=O)CNC(=O)C1=CO[C@@H](OC(=O)NC)[C@H]2[C@@H]1C[C@@H]1O[C@]21C [I-65] |  |  |  | 32.4 | 73.4 |  |
